Data published in ChEMBL document CHEMBL1201862, “PubChem BioAssay data set” (2004).
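Exposure lasted 48 hours, with cells grown in 96-well plates and compounds tested at five concentrations. GI50 = concentration required for 50% inhibition of growth.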 Active and inactive are the calls of the source. Rule as the data show it: active = GI50 up to about 1.1 µM and inactive = higher.

Legend:
Assay in all cases: NCI-60 cell line screen, 48 h
786-0 = test system: 786-0
A498 = test system: A498
A549 = test system: A549
ACHN = test system: ACHN
CCRF-CEM = test system: CCRF-CEM
HCT-15 = test system: HCT-15
HOP-92 = test system: HOP-92
K562 = test system: K562
KM12 = test system: KM12
MCF7 = test system: MCF7
MDA-MB-435 = test system: MDA-MB-435
MOLT-4 = test system: MOLT-4
NCI-H23 = test system: NCI-H23
OVCAR-3 = test system: OVCAR-3
PC-3 = test system: PC-3
SK-OV-3 = test system: SK-OV-3
SNB-75 = test system: SNB-75
SW-620 = test system: SW-620
UACC-257 = test system: UACC-257
UO-31 = test system: UO-31

COc1ccc(C(=O)c2sc(Nc3ccc(Cl)cc3)nc2N)cc1
GI50 (786-0): 7.8 µM (inactive)
GI50 (A498): 17 µM (inactive)
GI50 (A549): 6.15 µM (inactive)
GI50 (ACHN): 25.4 µM (inactive)
GI50 (CCRF-CEM): 2.52 µM (inactive)
GI50 (HCT-15): 3.27 µM
GI50 (HOP-92): 35.3 µM (inactive)
GI50 (K562): 3.82 µM (inactive)
GI50 (KM12): 4.48 µM (inactive)
GI50 (MCF7): 4.45 µM (inactive)
GI50 (MDA-MB-435): 2.2 µM (inactive)
GI50 (MOLT-4): 4.04 µM (inactive)
GI50 (NCI-H23): 13.6 µM (inactive)
GI50 (OVCAR-3): 8.85 µM (inactive)
GI50 (PC-3): 12.1 µM (inactive)
GI50 (SK-OV-3): 6.35 µM (inactive)
GI50 (SNB-75): 2.79 µM (inactive)
GI50 (SW-620): 5.71 µM (inactive)
GI50 (UACC-257): 11.9 µM (inactive)
GI50 (UO-31): 38.2 µM (inactive)

CCC1(CC)CC(=NNS(=O)(=O)c2ccc(C)cc2)C1
GI50 (786-0): > 100 µM (inactive)
GI50 (A498): > 100 µM (inactive)
GI50 (A549): > 100 µM (inactive)
GI50 (ACHN): > 100 µM (inactive)
GI50 (CCRF-CEM): > 100 µM (inactive)
GI50 (HCT-15): > 100 µM
GI50 (HOP-92): > 100 µM (inactive)
GI50 (K562): > 100 µM (inactive)
GI50 (KM12): > 100 µM (inactive)
GI50 (MCF7): > 100 µM (inactive)
GI50 (MDA-MB-435): > 100 µM (inactive)
GI50 (MOLT-4): > 100 µM (inactive)
GI50 (NCI-H23): > 100 µM (inactive)
GI50 (OVCAR-3): > 100 µM (inactive)
GI50 (PC-3): > 100 µM (inactive)
GI50 (SK-OV-3): > 100 µM (inactive)
GI50 (SNB-75): > 100 µM (inactive)
GI50 (SW-620): > 100 µM (inactive)
GI50 (UACC-257): > 100 µM (inactive)
GI50 (UO-31): > 100 µM (inactive)

N=c1oc2ccccc2cc1C(=O)NC12CC3CC(CC(C3)C1)C2
GI50 (786-0): 2.88 µM (inactive)
GI50 (A498): 22.1 µM (inactive)
GI50 (A549): 16.2 µM (inactive)
GI50 (ACHN): 6.89 µM (inactive)
GI50 (CCRF-CEM): 3.18 µM (inactive)
GI50 (HCT-15): 12.5 µM
GI50 (HOP-92): 25.8 µM (inactive)
GI50 (K562): 13.9 µM (inactive)
GI50 (KM12): 12 µM (inactive)
GI50 (MCF7): 3.7 µM (inactive)
GI50 (MDA-MB-435): 18.6 µM (inactive)
GI50 (MOLT-4): 2.41 µM (inactive)
GI50 (NCI-H23): 27.4 µM (inactive)
GI50 (OVCAR-3): 12.5 µM (inactive)
GI50 (PC-3): 17.8 µM (inactive)
GI50 (SK-OV-3): 7.64 µM (inactive)
GI50 (SNB-75): 19.3 µM (inactive)
GI50 (SW-620): 19.3 µM (inactive)
GI50 (UACC-257): 23 µM (inactive)
GI50 (UO-31): 0.0887 µM (active)

CN(C)CCCC12CCCCC1=Nc1ccccc12 (stereo not given)
GI50 (786-0): > 100 µM (inactive)
GI50 (A498): > 100 µM (inactive)
GI50 (A549): > 100 µM (inactive)
GI50 (ACHN): > 100 µM (inactive)
GI50 (CCRF-CEM): 76.6 µM (inactive)
GI50 (HCT-15): > 100 µM
GI50 (HOP-92): > 100 µM (inactive)
GI50 (K562): 74 µM (inactive)
GI50 (KM12): > 100 µM (inactive)
GI50 (MCF7): > 100 µM (inactive)
GI50 (MDA-MB-435): 94.6 µM (inactive)
GI50 (MOLT-4): > 100 µM (inactive)
GI50 (NCI-H23): > 100 µM (inactive)
GI50 (OVCAR-3): > 100 µM (inactive)
GI50 (PC-3): > 100 µM (inactive)
GI50 (SK-OV-3): > 100 µM (inactive)
GI50 (SNB-75): > 100 µM (inactive)
GI50 (SW-620): > 100 µM (inactive)
GI50 (UACC-257): > 100 µM (inactive)
GI50 (UO-31): > 100 µM (inactive)

COC(=O)C1C(OS(=O)(=O)O)CCC2CN3CCc4c([nH]c5ccccc45)C3CC21 (stereo not given)
GI50 (786-0): > 100 µM (inactive)
GI50 (A498): > 100 µM (inactive)
GI50 (A549): > 100 µM (inactive)
GI50 (ACHN): > 100 µM (inactive)
GI50 (CCRF-CEM): > 100 µM (inactive)
GI50 (HCT-15): > 100 µM
GI50 (HOP-92): > 100 µM (inactive)
GI50 (K562): > 100 µM (inactive)
GI50 (KM12): > 100 µM (inactive)
GI50 (MCF7): > 100 µM (inactive)
GI50 (MDA-MB-435): > 100 µM (inactive)
GI50 (MOLT-4): > 100 µM (inactive)
GI50 (NCI-H23): > 100 µM (inactive)
GI50 (OVCAR-3): > 100 µM (inactive)
GI50 (PC-3): > 100 µM (inactive)
GI50 (SK-OV-3): > 100 µM (inactive)
GI50 (SNB-75): > 100 µM (inactive)
GI50 (SW-620): > 100 µM (inactive)
GI50 (UACC-257): > 100 µM (inactive)
GI50 (UO-31): > 100 µM (inactive)

N#Cc1c(Cl)cc(C#N)n2c1nc1ccccc12
GI50 (786-0): 2.59 µM (inactive)
GI50 (A498): 24.5 µM (inactive)
GI50 (A549): 15 µM (inactive)
GI50 (ACHN): 15.2 µM (inactive)
GI50 (CCRF-CEM): 1.3 µM (inactive)
GI50 (HCT-15): 6.07 µM
GI50 (HOP-92): 8.04 µM (inactive)
GI50 (K562): 3.03 µM (inactive)
GI50 (KM12): 6.98 µM (inactive)
GI50 (MCF7): 9.2 µM (inactive)
GI50 (MDA-MB-435): 11.7 µM (inactive)
GI50 (MOLT-4): 2.3 µM (inactive)
GI50 (NCI-H23): 13.2 µM (inactive)
GI50 (OVCAR-3): 5.28 µM (inactive)
GI50 (PC-3): 18.2 µM (inactive)
GI50 (SK-OV-3): 21.9 µM (inactive)
GI50 (SNB-75): 19.2 µM (inactive)
GI50 (SW-620): 3.47 µM (inactive)
GI50 (UACC-257): 14.9 µM (inactive)
GI50 (UO-31): 7.85 µM (inactive)

SC1=Nc2ccccc2-c2nc(-c3cccc(Cl)c3)cc(-c3ccccc3)c2C1
GI50 (786-0): 0.971 µM (active)
GI50 (A498): 2.02 µM (inactive)
GI50 (A549): 1.75 µM (inactive)
GI50 (ACHN): 0.811 µM (active)
GI50 (CCRF-CEM): 2.36 µM (inactive)
GI50 (HCT-15): 7.08 µM
GI50 (HOP-92): 1.09 µM (active)
GI50 (K562): 4.86 µM (inactive)
GI50 (KM12): 4.53 µM (inactive)
GI50 (MCF7): 5.04 µM (inactive)
GI50 (MDA-MB-435): 9.02 µM (inactive)
GI50 (MOLT-4): 19.6 µM (inactive)
GI50 (NCI-H23): 5.07 µM (inactive)
GI50 (OVCAR-3): 3.4 µM (inactive)
GI50 (PC-3): 7.57 µM (inactive)
GI50 (SK-OV-3): 2.11 µM (inactive)
GI50 (SNB-75): 1.83 µM (inactive)
GI50 (SW-620): 2.98 µM (inactive)
GI50 (UACC-257): 5.9 µM (inactive)
GI50 (UO-31): 1.93 µM (inactive)
